Source: US20060002960A1 (priority 2003, published 2006)
“And” between values parts separate entries of the source, which are not always exact repeats. Identical values can stand only once. Like-named read-outs stand apart in the source and are kept apart here.

Tests used:
[1] = cited from earlier work
mice [2] = conditions: mouse, in vivo
C57B1/6 mice [3] = conditions: mouse, in vivo
C57B1/6 mice [4] = conditions: mouse, in vivo; remark: listed apart in the source
mice [5] = conditions: mouse, in vivo; remark: listed apart in the source
Balb/c mice = conditions: mouse, in vivo, po
mice [6] = conditions: mouse, in vivo; remark: listed apart in the source
C57B1/6 mice [7] = conditions: mouse, in vivo; remark: listed apart in the source
C57B1/6 mice [8] = conditions: mouse, in vivo; remark: listed apart in the source
Y-1 adrenal cells = assay type: cell-based
C57B1/6 mice [9] = conditions: mouse, in vivo; remark: listed apart in the source
C57B1/6 mice [10] = conditions: mouse, in vivo; remark: listed apart in the source
C57B1/6 mice [11] = conditions: mouse, in vivo; remark: listed apart in the source
C57B1/6 mice [12] = conditions: mouse, in vivo; remark: listed apart in the source
LT or CT = conditions: cited from earlier work
mice [13] = conditions: mouse, in vivo; remark: listed apart in the source

## Escherichia coli heat-labile enterotoxin [LT]
[1]
  Kd: 0.0007 µM
Mice [2]
  inflammatory response after IM injection: swelling of the thigh muscle
Mice [2]; sc
  inflammatory response after SC injection: formation of a large nodule
C57B1/6 mice [3]
  lymph node cell response to re-stimulation with OVA or LT: did respond to in vitro re-stimulation with OVA or LT by producing IFN-γ and IL-4
  spleen cell IFN-γ response to re-stimulation: did respond to re-stimulation by producing IFN-γ
C57B1/6 mice [4]
  Flu A IgG, Assay values (Elisa Units) Individual Mice: 150 Elisa Units and 102 Elisa Units and 47 Elisa Units and 45 Elisa Units and 642 Elisa Units and 15498 Elisa Units and 3137 Elisa Units and 6852 Elisa Units and 18563 Elisa Units and 28151 Elisa Units
Mice [5]
  times more IFNγ and IL4 producing lymphocytes compared to TT alone: 10 times
Balb/c mice
  fold increase in G:C compared to the buffer control group: 2.4 fold
Mice [6]
  examination of the injection sites: developed edema and inflammation at the site of injection
C57B1/6 mice [7]
  TT IgG, Assay values (Elisa Units) Individual Mice: 188314 Elisa Units and 222731 Elisa Units and 178753 Elisa Units and 88333 Elisa Units and 192934 Elisa Units and 201494 Elisa Units and 169482 Elisa Units and 379919 Elisa Units and 73992 Elisa Units and 615173 Elisa Units and 204102 Elisa Units and 146225 Elisa Units and 183724 Elisa Units and 323948 Elisa Units and 202170 Elisa Units and 185486 Elisa Units and 85832 Elisa Units and 163652 Elisa Units and 208284 Elisa Units and 83436 Elisa Units and 63293 Elisa Units and 50116 Elisa Units and 121818 Elisa Units and 176340 Elisa Units and 114780 Elisa Units and 131805 Elisa Units and 6246 Elisa Units and 11745 Elisa Units and 31797 Elisa Units
  anti-TT IgG GMT: 282,000
  fold greater anti-TT IgG titers than the non-adjuvanted group: 34 fold
  immune response to co-administered TT: significantly enhanced
C57B1/6 mice [8]
  Anti-OVA titers GMT: 51,000
  anti-LT IgG titers GMT: 30,000
  fold increase of Anti-OVA titers: 37 fold
Y-1 adrenal cells
  rounding of cultured cells: 70-100%
Y-1 adrenal cells; 0.05 ng/ml, 6-8 h
  percentage of rounded cells: −−− (key: +++ 70-100% rounded cells; ++ 50-75%; + 25-50%; −−− <25%)
Y-1 adrenal cells; 0.1 ng/ml, 6-8 h
  percentage of rounded cells: −−− (key: +++ 70-100% rounded cells; ++ 50-75%; + 25-50%; −−− <25%)
Y-1 adrenal cells; 0.2 ng/ml, 6-8 h
  percentage of rounded cells: + (key: +++ 70-100% rounded cells; ++ 50-75%; + 25-50%; −−− <25%)
Y-1 adrenal cells; 0.4 ng/ml, 6-8 h
  percentage of rounded cells: ++ (key: +++ 70-100% rounded cells; ++ 50-75%; + 25-50%; −−− <25%)
Y-1 adrenal cells; 0.8 ng/ml, 6-8 h
  percentage of rounded cells: +++ (key: +++ 70-100% rounded cells; ++ 50-75%; + 25-50%; −−− <25%)
Y-1 adrenal cells; 1.6 ng/ml, 6-8 h
  percentage of rounded cells: +++ (key: +++ 70-100% rounded cells; ++ 50-75%; + 25-50%; −−− <25%)
Y-1 adrenal cells; 3.1 ng/ml, 6-8 h
  percentage of rounded cells: +++ (key: +++ 70-100% rounded cells; ++ 50-75%; + 25-50%; −−− <25%)
Y-1 adrenal cells; 6.3 ng/ml, 6-8 h
  percentage of rounded cells: +++ (key: +++ 70-100% rounded cells; ++ 50-75%; + 25-50%; −−− <25%)
Y-1 adrenal cells; 12.5 ng/ml, 6-8 h
  percentage of rounded cells: +++ (key: +++ 70-100% rounded cells; ++ 50-75%; + 25-50%; −−− <25%)
Y-1 adrenal cells; 25 ng/ml, 6-8 h
  percentage of rounded cells: +++ (key: +++ 70-100% rounded cells; ++ 50-75%; + 25-50%; −−− <25%)
Y-1 adrenal cells; 50 ng/ml, 6-8 h
  percentage of rounded cells: +++ (key: +++ 70-100% rounded cells; ++ 50-75%; + 25-50%; −−− <25%)
Y-1 adrenal cells; 100 ng/ml, 6-8 h at 37° C.
  percentage of rounded cells: +++ (key: +++ 70-100% rounded cells; ++ 50-75%; + 25-50%; −−− <25%)
C57B1/6 mice [9]
  histological examination of injection site: elicited an inflammatory response that persisted for days
  mice with inflammatory response: 4 of 7
  persistence of induration: greater than 2 weeks
  skin nodules (incidence, words): did not cause skin nodules in six out of the seven injected mice
  skin nodules / inflammatory response after intradermal injection: caused skin nodules in all mice
  toxin-induced inflammation: completely abolished
C57B1/6 mice [10]
  anti-TT IgG titers GMT: 150,000
  anti-TT titers: significantly increased
C57B1/6 mice [11]
  anti-LT antibody titers GMT: 196,000
C57B1/6 mice [12]
  anti-OVA antibody titers GMT: 32,000

## Nc1ccc(OC2OC(CO)C(O)C(O)C2O)cc1 (stereo not drawn) [p-aminophenyl α-galactoside]
LT or CT
  IC50: 4800 to 12000 µM

## O=C(O)[C@H](O)[C@@H](O)[C@H](O)[C@H](O)CO[C@H]1O[C@H](CO)[C@H](O)[C@H](O)[C@H]1O [melibionic acid]
LT or CT
  IC50: 5000 to 11000 µM

## Gal-β1,3-GalNAc-β1,4-(NeuAc-α2,3)-Gal-β1,4-Glc-β1,1-ceramide [GM1]
LT or CT; read-out: affinity
  Kd: 0.0001 to 0.01 µM
C57B1/6 mice [9]
  Diameter skin nodules, Average Mean ± SD: 0 cm
  Diameter skin nodules, Individual Mice: 0 cm
  skin nodules / inflammatory response after intradermal injection: not inflammatory

## O=[N+]([O-])c1cccc(OC2OC(CO)C(O)C(O)C2O)c1 (stereo not drawn) [m-nitrophenyl α-galactoside]
LT or CT
  IC50: 600 to 700 µM

## cholera toxin [CT]
[1]
  Kd: 0.0006 µM
Mice [2]
  inflammatory response after IM injection: muscle swelling
Mice [6]
  TT IgG, Geometric mean: 95419 Elisa Units
  fold higher titers than the non-adjuvanted vaccine: 823 fold
  fold more active than CT/GM1: 1.6 to 3 fold
C57B1/6 mice [7]
  TT IgG, Assay values (Elisa Units) Individual Mice: 11222 Elisa Units and 14300 Elisa Units and 29533 Elisa Units and 63092 Elisa Units and 125687 Elisa Units
  TT IgG, Geometric mean: 32734 Elisa Units
  fold greater antibody titers to TT than the non-adjuvanted vaccine: 105 fold
C57B1/6 mice [9]
  skin nodules / inflammatory response after intradermal injection: skin nodules
Mice [13]
  TT IgG, Assay values (Elisa Units) Individual Mice: 71077 Elisa Units and 113082 Elisa Units and 75238 Elisa Units and 123721 Elisa Units and 61438 Elisa Units
  TT IgG, Geometric mean: 85603 Elisa Units
  fold higher antibody titers to TT than the non-adjuvanted vaccine: 426 fold
